# Entries after “also recorded” stand apart in the source; their conditions may differ.
# Legend:
# [1] = test system: hypoxia-induced model of pulmonary hypertension in Dahl SS rats; assay: Hemodynamic study (pressures, RV/LV weights) in hypoxia/SU5416 model of pulmonary hypertension; type: in vivo, rat; conditions: for BP mmHg (+/−) SE / PA mmHg (+/−) SE / RVSP mmHg (+/−) SE: 3½ Wk hypoxia (10% FiO2), sorafenib daily 2.5 mg/Kg, SU5416 day zero 20 mg/kg, 2 experiments as one cohort; for development of pulmonary hypertension (right ventricular and pulmonary artery pressures, right ventricle/left ventricular weights): hypoxia 10% FiO2, 3 weeks, SU5416 20 mg/kg once, sorafenib by gavage daily
# Procedure: As part of the spectrum of sorafenib's pharmacologic activity overlaps with SU5416, a study was performed to determine whether sorafenib had similar effects or with additional mechanisms of inhibitory activity could counteract the effects of SU5416. Dahl Salt Sensitive rats were divided into 5 groups: normoxia+vehicle (normal, healthy control), hypoxia+SU5416 (positive control), hypoxia+sorafenib (safety comparison with SU5416), and hypoxia+sorafenib+SU5416 (therapeutic activity assessment). Echocardiograms were performed on all rats at the start of the study. Except for the normoxia group, all rats were maintained in a hypoxia chamber with a partial pressure of oxygen of 10% FiO2 for the duration of the study. Rats in the two SU5416 groups received one subcutaneous injection of SU5416 at the start of the study (20 mg/kg). Stock sorafenib solutions were prepared every three days, crushing and dissolving sorafenib tablets in EL/ethanol (50:50; Sigma Cremophor EL, 95% ethyl alcohol) at final concentration of 4 mg/mL, protected from light exposure and stored at room temperature. Final dosing solutions were prepared on the day of use by dilution of the stock solution to 1 mg/mL with water and administered by gavage to the rats daily. […] Organ and blood specimens were obtained for further evaluation. […] RV 3DE measurements were also determined (diameters+area), A=RV major diameter, B=RV annulus diastolic diameter & area, C=RV at ⅓ RV major diameter & area, D=RV at ⅔ RV major diameter & area.
# (§1) Protocol includes an initial administration of SU5416 subcutaneously at 20 mg/kg followed daily by sorenfenib oral daily doses of 2.5 mg/kg. Some animals were exposed to chronic hypoxia (10% O2). The animals were divided into five experimental groups: hypoxia+sorafenib; hypoxia+SU5416+sorafenib, normoxia+vehicle control; Hypoxia+vehicle; and hypoxia+SU5416. PAP, RVSP, Echo, and DNA microarrays were used to measure various physiological and molecular biological parameters. FIG. 4 illustrates that hypoxia/SU5416-induces increases in right heart pressures and right heart hypertrophy (RV/LV+Septum).
# Fifteen Dahl Salt Sensitive strain rats were divided into 5 groups: normoxia+vehicle (normal, healthy control), hypoxia+vehicle (hypoxia control), hypoxia+SU5416 (positive control), hypoxia+sorafenib (safety comparison with SU5416), and hypoxia+sorafenib+SU5416 (therapeutic activity assessment). Echocardiograms were performed on all rats at the start of the experiment. Except for the normoxia group, all rats were maintained in a hypoxia chamber with a partial pressure of oxygen of 10% FiO2 for the duration of the experiment. Rats in the 2 SU5416 groups received one subcutaneous injection of SU5416 at the start of the experiment (20 mg/kg). Stock sorafenib solutions were prepared every three days, crushing and dissolving sorafenib tablets in EL/ethanol (50:50; Sigma Cremophor EL, 95% ethyl alcohol) at final concentration of 4 mg/mL, protected from light exposure and stored at room temperature. Final dosing solutions were prepared on the day of use by dilution of the stock solution to 1 mg/mL with water and administered by gavage to the rats daily. […] Organ and blood specimens were obtained for further evaluation.
# [2] = test system: hypoxia-induced model of pulmonary hypertension in Dahl SS rats; assay: Echocardiography in hypoxia/SU5416 model of pulmonary hypertension; type: in vivo, rat; parameters: CO (PA): unit not given beside the values; RVAW / LVPW / CO (Ao) / MPA: unit not given here; conditions: echocardiogram
# Procedure: As part of the spectrum of sorafenib's pharmacologic activity overlaps with SU5416, a study was performed to determine whether sorafenib had similar effects or with additional mechanisms of inhibitory activity could counteract the effects of SU5416. […] Echocardiograms were performed on all rats at the start of the study. Except for the normoxia group, all rats were maintained in a hypoxia chamber with a partial pressure of oxygen of 10% FiO2 for the duration of the study. Rats in the two SU5416 groups received one subcutaneous injection of SU5416 at the start of the study (20 mg/kg). Stock sorafenib solutions were prepared every three days, crushing and dissolving sorafenib tablets in EL/ethanol (50:50; Sigma Cremophor EL, 95% ethyl alcohol) at final concentration of 4 mg/mL, protected from light exposure and stored at room temperature. Final dosing solutions were prepared on the day of use by dilution of the stock solution to 1 mg/mL with water and administered by gavage to the rats daily. After 3 weeks, all rats had echocardiography and hemodynamic studies. Organ and blood specimens were obtained for further evaluation. […] RV 3DE measurements were also determined (diameters+area), A=RV major diameter, B=RV annulus diastolic diameter & area, C=RV at ⅓ RV major diameter & area, D=RV at ⅔ RV major diameter & area.
# Echocardiograms were performed on all rats at the start of the experiment. Except for the normoxia group, all rats were maintained in a hypoxia chamber with a partial pressure of oxygen of 10% FiO2 for the duration of the experiment. Rats in the 2 SU5416 groups received one subcutaneous injection of SU5416 at the start of the experiment (20 mg/kg). Stock sorafenib solutions were prepared every three days, crushing and dissolving sorafenib tablets in EL/ethanol (50:50; Sigma Cremophor EL, 95% ethyl alcohol) at final concentration of 4 mg/mL, protected from light exposure and stored at room temperature. Final dosing solutions were prepared on the day of use by dilution of the stock solution to 1 mg/mL with water and administered by gavage to the rats daily. After 3 weeks, all rats had echocardiography and hemodynamic studies. Organ and blood specimens were obtained for further evaluation.
# [3] = Body weight of rats in hypoxia/SU5416 study; type: in vivo, rat; conditions: Dahl SS rats
# Procedure: Fifteen Dahl Salt Sensitive strain rats were divided into 5 groups: normoxia+vehicle (normal, healthy control), hypoxia+vehicle (hypoxia control), hypoxia+SU5416 (positive control), hypoxia+sorafenib (safety comparison with SU5416), and hypoxia+sorafenib+SU5416 (therapeutic activity assessment). Echocardiograms were performed on all rats at the start of the experiment. Except for the normoxia group, all rats were maintained in a hypoxia chamber with a partial pressure of oxygen of 10% FiO2 for the duration of the experiment. Rats in the 2 SU5416 groups received one subcutaneous injection of SU5416 at the start of the experiment (20 mg/kg). Stock sorafenib solutions were prepared every three days, crushing and dissolving sorafenib tablets in EL/ethanol (50:50; Sigma Cremophor EL, 95% ethyl alcohol) at final concentration of 4 mg/mL, protected from light exposure and stored at room temperature. Final dosing solutions were prepared on the day of use by dilution of the stock solution to 1 mg/mL with water and administered by gavage to the rats daily. After 3 weeks, all rats had echocardiography and hemodynamic studies. Organ and blood specimens were obtained for further evaluation.
# [4] = test system: hypoxia-induced model of pulmonary hypertension in Dahl SS rats; conditions: previously demonstrated; cited from earlier work
# rat lung vasculature = assay: Rat lung histopathology (H&E sections, Heath-Edwards grading); type: in vivo; conditions: Dahl SS rats, Hypoxia+SU5416+Sorafenib vs Hypoxia+SU5416, H/E sections
# Procedure: The Heath-Edwards grading system grades pulmonary hypertension by microscopic features. The general classification is as follows:
# as §1
# rat lung tissue = assay: Expression profiling of rat lung tissue RNA (Rat Chip II, Affymetrix); type: in vivo; conditions: compared to normoxia; GCRMA normalization, SAM (δ>0.639, minimum fold change>1.7)
# Source text: To study potential mechanisms of sorafenib effects on PH RNA was isolated from rat lung tissue and analyzed using the Rat Chip II (Affymetrix). […] Mechanisms of PAH pathobiology is poorly understood therefore, to explore potential mechanistic pathways the inventors conducted bioinformatic studies and expression profiling. […] The candidate genes identified fell into various gene ontology classes, for example 4% were in the lung development and growth factors class (e.g., Bambi, Tgfb3, Ltbp2), 13% in the cell migration/ECM class (e.g., Itga3_predicted, Cspg4, Cxcll2, Reln, Col18a1, Cthrc1, Hmgcr, Cnn1, Col6a2, Jag2), 4% in the apoptosis class (e.g., Anzal, Col18a1, Jag2), 4% in the smooth muscle/fiber formation class (e.g., Des, Tpm3, Jph2), 10% in the cell proliferation class (e.g., Anxal, Timp1, Lamb—1 predicted, Cspg4, Cxcll2, Gja4, Jag2, Tgfb3), 6% in the blood vessel development class (e.g., Cxcll2, Cspg4, Gja4, Col18a1, Serpine1), and 5% in the angiogenesis class (Cxcl12, Cspg4, Col18a1, Serpine1).
# [5] = cited from earlier work
# [6] = Wade et al., 2004; cited from earlier work
# [7] = room temperature and neutral pH; cited from earlier work
# PAH patients = conditions: case report, combination therapy with imatinib at 3 and 6 months; cited from earlier work
# [8] = PRE (baseline at start of experiment)
SMILES,BP mmHg (+/−) SE [1],PA mmHg (+/−) SE [1],RVSP mmHg (+/−) SE [1],"development of pulmonary hypertension (right ventricular and pulmonary artery pressures, right ventricle/left ventricular weights) [1]",CI (Ao) ([2]; POST (after 3 weeks hypoxia)),CI(PA) ([2]; POST (after 3 weeks hypoxia)),CO (Ao) ([2]; POST (after 3 weeks hypoxia)),CO (PA) ([2]; POST (after 3 weeks hypoxia)),FS (%) ([2]; POST (after 3 weeks hypoxia)),LV Mass (gram) ([2]; POST (after 3 weeks hypoxia)),LVPW ([2]; POST (after 3 weeks hypoxia)),MPA ([2]; POST (after 3 weeks hypoxia)),PA PG (mmHg) ([2]; POST (after 3 weeks hypoxia)),TV max PG (mmHg) ([2]; POST (after 3 weeks hypoxia)),"CI (Ao) [2, 8]","CI(PA) [2, 8]","CO (Ao) [2, 8]","CO (PA) [2, 8]","FS (%) [2, 8] [%]","LV Mass (gram) [2, 8] [gram]",also measured
Cc1cc(C)c(/C=C2\C(=O)Nc3ccccc32)[nH]1 [SU5416],78 +/− 4 mmHg,33 +/− 3 mmHg,30 +/− 4 mmHg,developed pulmonary hypertension,0.82 ± 0.22,0.87 ± 0.14,261 ± 55,279 ± 69,63 ± 4,1.25 ± 0.33,0.16 ± 0.02,0.41 ± 0.05,2.05 ± 0.92,5.63 ± 4.07,0.95 ± 0.06,1.21 ± 0.26,310 ± 10,400 ± 99,71 ± 11,1.30 ± 0.14,"RVAW ([2]; POST (after 3 weeks hypoxia)): 0.16 ± 0.03; LVPW [2, 8]: 0.16 ± 0.04; MPA [2, 8]: 0.45 ± 0.01; PA PG (mmHg) [2, 8]: 3.65 ± 2.76 mmHg; RVAW [2, 8]: 0.07; Wt ([3]; POST (after 3 weeks hypoxia)): 324 ± 22 g; Wt [3, 8]: 328 ± 11 g; effect on pulmonary hypertension in hypoxic rats (previous reports) [4]: exacerbate pulmonary hypertension"
CNC(=O)c1cc(Oc2ccc(NC(=O)Nc3ccc(Cl)c(C(F)(F)F)c3)cc2)ccn1 [Sorafenib],97 +/− 4 mmHg,18 +/− 2 mmHg,17 +/− 2 mmHg,attenuated physiologic and histopathologic changes in PAH; also recorded: protect SU5416-treated hypoxia-exposed rats from pulmonary arterial hypertension,1.00 ± 0.80,0.82 ± 0.17,326 ± 246,271 ± 48,68 ± 20,1.30 ± 0.10,0.18 ± 0.03,0.38 ± 0.07,3.87 ± 0.95,4.85 ± 3.46,1.77 ± 1.30,1.70 ± 1.43,577 ± 418,551 ± 467,78 ± 5,1.60 ± 0.30,"development of pulmonary hypertension (right ventricular and pulmonary artery pressures, right ventricle/left ventricular weights) ([1]; listed as sorafenib): prevents hypoxia+SU5416 induced pulmonary hypertension and remodeling; also recorded: no significant change in pressures or weights; also recorded: does not exacerbate hypoxia-induced hypertension; development of pulmonary hypertension (right ventricular and pulmonary artery pressures, right ventricle/left ventricular weights) ([1]; listed as sorefenib): did not develop evidence of PAH; right heart hypertrophy (RV/LV+Septum) ([1]; hypoxia+SU5416, sorafenib oral daily 2.5 mg/kg): prevented hypoxia+SU5416 development of right heart hypertrophy; LVPW [2, 8]: 0.21 ± 0.03; MPA [2, 8]: 0.48 ± 0.07; PA PG (mmHg) [2, 8]: 6.10 ± 5.52 mmHg; RVAW [2, 8]: 0.11; Wt ([3]; POST (after 3 weeks hypoxia)): 331 ± 15 g; Wt [3, 8]: 328 ± 10 g; remodeling of the lung vasculature (histopathology, Heath-Edwards grading) (rat lung vasculature): Prevents Remodeling; remodeling of the lung vasculature (histopathology, Heath-Edwards grading) (rat lung vasculature; listed as sorafenib): dramatic improvement; genes differentially regulated (rat lung tissue): at least 179 genes; MTD ([5]; known MTD, oral): 400 mg twice daily; drug interactions with warfarin or digoxin ([5]; previous sorafenib studies): have not demonstrated known drug interactions"
CCCCC[C@H](O)CC[C@@H]1[C@H]2Cc3cccc(OCC(=O)O)c3C[C@H]2C[C@H]1O [Treprostinil],–,–,–,–,–,–,–,–,–,–,–,–,–,–,–,–,–,–,–,–,half-life [6]: 3 to 4 h; chemical stability [7]: chemically stable at room temperature and neutral pH
Cc1ccc(NC(=O)c2ccc(CN3CCN(C)CC3)cc2)cc1Nc1nccc(-c2cccnc2)n1 [imatinib],–,–,–,–,–,–,–,–,–,–,–,–,–,–,–,–,–,–,–,–,improvement in 6MW (PAH patients): 60%
